Converted amounts (≈) assume the structure as drawn.
Columns and labels:
Klebsiella aerogenes = assay: Minimum inhibitory concentration against Klebsiella aerogenes 1522E strain; assay type: functional
Pseudomonas aeruginosa [1] = assay: Minimum inhibitory concentration against Pseudomonas aeruginosa 1592E strain; assay type: functional
[2] = Half life at a single intravenous administration of 5 mg/kg in dog; assay type: ADME, organism-based, Canis lupus familiaris; design: dose 5 mg/kg, route intravenous; conditions: in vivo
[3] = Half life at a single intravenous administration of 20 mg/kg in rat; assay type: ADME, organism-based; design: dose 20 mg/kg, route intravenous; conditions: in vivo
Pseudomonas aeruginosa [4] = assay: Minimum inhibitory concentration against Pseudomonas aeruginosa 1771M strain; assay type: functional
[5] = Area under concentration time at a single intravenous administration of 5 mg/kg in dog; assay type: ADME, organism-based, Canis lupus familiaris; design: dose 5 mg/kg, route intravenous; conditions: in vivo
[6] = Clearance value at a single intravenous administration of 5 mg/kg in dog; assay type: ADME, organism-based, Canis lupus familiaris; design: dose 5 mg/kg, route intravenous; conditions: in vivo
[7] = Clearance value at a single intravenous administration of 20 mg/kg in rat; assay type: ADME, organism-based; design: dose 20 mg/kg, route intravenous; conditions: in vivo
Escherichia coli [8] = assay: Minimum inhibitory concentration against Escherichia coli 1507 E strain; assay type: functional
Staphylococcus aureus [9] = assay: Minimum inhibitory concentration against […] 285 strain; assay type: functional
[10] = Area under concentration time at a single intravenous administration of 20 mg/kg in rat; assay type: ADME, organism-based; design: dose 20 mg/kg, route intravenous; conditions: in vivo
Escherichia coli [11] = assay: Minimum inhibitory concentration against Escherichia coli 078 strain; assay type: functional
Klebsiella pneumoniae [12] = assay: Minimum inhibitory concentration against Klebsiella pneumoniae (n=30); (Range = 0.015-0.25); assay type: functional
Salmonella typhimurium = assay: Minimum inhibitory concentration against Salmonella Typhimurium; assay type: functional, Salmonella enterica subsp. enterica serovar Typhimurium; conditions: Salmonella enterica
Streptococcus pneumoniae [13] = assay: Minimum inhibitory concentration against Streptococcus pneumoniae (n=22); (Range = 0.008-0.25); assay type: functional
Pseudomonas aeruginosa [14] = assay: Minimum inhibitory concentration against was determined against Pseudomonas aeruginosa 9027 strain; assay type: functional
Enterobacter cloacae = assay: Minimum inhibitory concentration against Enterobacter cloacae 1321E strain; assay type: functional
Moraxella catarrhalis [15] = assay: Minimum inhibitory concentration against Moraxella catarrhalis (n=22); (Range=0.015-0.06); assay type: functional
Pseudomonas aeruginosa [16] = assay: Minimum inhibitory concentration against Pseudomonas aeruginosa (n=60); (Range=0.06-128); assay type: functional
Streptococcus pyogenes = assay: Minimum inhibitory concentration against Streptococcus pyogenes 308A strain; assay type: functional
Staphylococcus aureus [17] = assay: Minimum inhibitory concentration against […] 503 strain; assay type: functional
Streptococcus pneumoniae [18] = assay: Minimum inhibitory concentration of the compound was determined against Streptococcus pneumoniae (n=22);(Range = 0.008-0.25); assay type: functional
Klebsiella pneumoniae [19] = assay: Minimum inhibitory concentration against Klebsiella pneumoniae (n=30); (Range = 0.03-0.25); assay type: functional
Moraxella catarrhalis [20] = assay: Minimum inhibitory concentration against Moraxella catarrhalis (n=22); (Range=0.008-0.06); assay type: functional
Moraxella catarrhalis [21] = assay: Minimum inhibitory concentration against Moraxella catarrhalis (n=22); (Range=0.008-0.6); assay type: functional
Pseudomonas aeruginosa [22] = assay: Minimum inhibitory concentration against Pseudomonas aeruginosa (n=60); (Range=0.025-128); assay type: functional
Moraxella catarrhalis [23] = assay: Minimum inhibitory concentration against Moraxella catarrhalis (n=22); (Range = 0.008-0.12); assay type: functional
Klebsiella pneumoniae [24] = assay: Minimum inhibitory concentration against Klebsiella pneumoniae (n=30); (Range = […]); assay type: functional
Moraxella catarrhalis [25] = assay: Minimum inhibitory concentration against Moraxella catarrhalis (n=22); (Range=0.008-0.12); assay type: functional
Streptococcus pneumoniae [26] = assay: Minimum inhibitory concentration against Streptococcus pneumoniae (n=22); (Range=0.008-1); assay type: functional
Pseudomonas aeruginosa [27] = assay: Minimum inhibitory concentration against Pseudomonas aeruginosa (n=60); (Range=1-128); assay type: functional
Klebsiella pneumoniae [28] = assay: Minimum inhibitory concentration against Klebsiella pneumoniae (n=30); (Range=0.008-1); assay type: functional
Pseudomonas aeruginosa [29] = assay: Minimum inhibitory concentration against Pseudomonas aeruginosa (n=60); (Range=0.5-128); assay type: functional
Moraxella catarrhalis [30] = assay: Minimum inhibitory concentration against Moraxella catarrhalis (n=22); (Range=0.008-0.25); assay type: functional
Pseudomonas aeruginosa [31] = assay: microbe, parasite or virus in culture
Klebsiella pneumoniae [32] = assay: Minimum inhibitory concentration against Klebsiella pneumoniae (n=30); (Range=[…]); assay type: functional
Moraxella catarrhalis [33] = assay: microbe, parasite or virus in culture
Streptococcus pneumoniae [34] = assay: Minimum inhibitory concentration against Streptococcus pneumoniae (n=22); (Range = 0.008-0.5); assay type: functional
Klebsiella pneumoniae [35] = assay: Minimum inhibitory concentration against Klebsiella pneumoniae (n=30); (Range=0.06-1); assay type: functional
Moraxella catarrhalis [36] = assay: Minimum inhibitory concentration against Moraxella catarrhalis (n=22); (Range=0.008-0.03); assay type: functional
Klebsiella pneumoniae [37] = assay: Minimum inhibitory concentration against Klebsiella pneumoniae (n=30); (Range = 0.015-0.06); assay type: functional

MIC (Klebsiella aerogenes)	MIC (Pseudomonas aeruginosa [1])	half-life [2]	half-life [3]	MIC (Pseudomonas aeruginosa [4])	AUC [5]	clearance [6]	clearance [7]	MIC (Escherichia coli [8])	MIC (Staphylococcus aureus [9])	AUC [10]	MIC (Escherichia coli [11])	MIC (Salmonella typhimurium)	MIC90 (Streptococcus pneumoniae [13])	MIC (Pseudomonas aeruginosa [14])	MIC (Enterobacter cloacae)	MIC (Streptococcus pyogenes)	MIC (Staphylococcus aureus [17])	SMILES	MIC50 (Pseudomonas aeruginosa [16])	MIC90 (Pseudomonas aeruginosa [16])	also measured
0.049 µg/mL	0.195 µg/mL	41 min	12 min	0.049 µg/mL	861 µg·min/mL	6 mL/min/kg	13 mL/min/kg	0.025 µg/mL	0.195 µg/mL	1520 µg·min/mL	0.013 µg/mL	0.049 µg/mL	0.12 µg/mL	0.195 µg/mL	0.025 µg/mL	49 ng/mL	0.195 µg/mL	C[C@@H](O)[C@H]1C(=O)N2C(C(=O)O)=C(S[C@@H]3CN[C@H](/C=C/c4cc(C(=O)[O-])no4)C3)[C@H](C)[C@H]12.[Na+]	4 µg/mL	64 µg/mL	MIC50 (Klebsiella pneumoniae [12]): 0.03 µg/mL; MIC90 (Klebsiella pneumoniae [12]): 0.12 µg/mL; MIC50 (Moraxella catarrhalis [15]): 0.03 µg/mL; MIC90 (Moraxella catarrhalis [15]): 0.06 µg/mL; MIC50 (Streptococcus pneumoniae [18]): 8 ng/mL
0.049 µg/mL	0.391 µg/mL			1.56 µg/mL				0.025 µg/mL	0.195 µg/mL		0.025 µg/mL	0.049 µg/mL		0.195 µg/mL	0.025 µg/mL	7 ng/mL	0.098 µg/mL	C[C@@H](O)[C@H]1C(=O)N2C(C(=O)O)=C(S[C@@H]3CN[C@H](/C=C/c4cc(C(=O)[O-])on4)C3)[C@H](C)[C@H]12.[Na+]			
0.049 µg/mL (≈ 0.121 µM)	0.195 µg/mL (≈ 0.481 µM)	23 min	16 min	0.098 µg/mL (≈ 0.242 µM)	186 µg·min/mL	27 mL/min/kg	18 mL/min/kg	0.025 µg/mL (≈ 0.0617 µM)	0.049 µg/mL (≈ 0.121 µM)	1130 µg·min/mL	0.025 µg/mL (≈ 0.0617 µM)	0.049 µg/mL (≈ 0.121 µM)	0.12 µg/mL (≈ 0.296 µM)	0.195 µg/mL (≈ 0.481 µM)	0.025 µg/mL (≈ 0.0617 µM)	4 ng/mL (≈ 0.00986 µM)	0.098 µg/mL (≈ 0.242 µM)	CC1C(S[C@@H]2CN[C@H](/C=C/c3ccno3)C2)=C(C(=O)O)N2C(=O)[C@H]([C@@H](C)O)[C@@H]12 (single isomer, unassigned)			MIC50 (Klebsiella pneumoniae [19]): 0.06 µg/mL (≈ 0.148 µM); MIC90 (Klebsiella pneumoniae [19]): 0.12 µg/mL (≈ 0.296 µM); MIC50 (Moraxella catarrhalis [20]): 0.015 µg/mL (≈ 0.037 µM); MIC50 (Streptococcus pneumoniae [13]): 0.03 µg/mL (≈ 0.074 µM); MIC90 (Moraxella catarrhalis [21]): 0.03 µg/mL (≈ 0.074 µM); MIC50 (Pseudomonas aeruginosa [22]): 8 µg/mL (≈ 19.7 µM); MIC90 (Pseudomonas aeruginosa [22]): 64 µg/mL (≈ 158 µM)
																		C[C@@H](O)[C@H]1C(=O)N2C(C(=O)O)=C(S[C@@H]3CN[C@H](C(=O)Nc4cccc(C(=O)O)c4)C3)[C@H](C)[C@H]12 [ERTAPENEM]			MIC50 (Moraxella catarrhalis [23]): 0.015 µg/mL (≈ 0.0315 µM); MIC90 (Klebsiella pneumoniae [24]): 0.5 µg/mL (≈ 1.05 µM); MIC90 (Moraxella catarrhalis [25]): 0.03 µg/mL (≈ 0.0631 µM); MIC50 (Streptococcus pneumoniae [26]): 0.5 µg/mL (≈ 1.05 µM); MIC90 (Streptococcus pneumoniae [26]): 1 µg/mL (≈ 2.1 µM); MIC50 (Pseudomonas aeruginosa [27]): 32 µg/mL (≈ 67.3 µM); MIC90 (Pseudomonas aeruginosa [27]): 128 µg/mL (≈ 269 µM); MIC50 (Klebsiella pneumoniae [28]): 0.03 µg/mL (≈ 0.0631 µM)

SMILES	MIC (Klebsiella aerogenes)	MIC (Pseudomonas aeruginosa [1])	half-life [2]	half-life [3]	MIC (Pseudomonas aeruginosa [4])	AUC [5]	clearance [6]	clearance [7]	MIC (Escherichia coli [8])	MIC (Staphylococcus aureus [9])	AUC [10]	MIC (Escherichia coli [11])	MIC (Salmonella typhimurium)	MIC90 (Streptococcus pneumoniae [13])	MIC (Pseudomonas aeruginosa [14])	MIC (Enterobacter cloacae)	MIC (Streptococcus pyogenes)	MIC (Staphylococcus aureus [17])	MIC50 (Pseudomonas aeruginosa [16])	MIC90 (Pseudomonas aeruginosa [16])	also measured
C[C@@H](O)[C@H]1C(=O)N2C(C(=O)O)=C(SCCNC=N)C[C@H]12 [IMIPENEM ANHYDROUS]	0.195 µg/mL (≈ 0.651 µM)	0.781 µg/mL (≈ 2.61 µM)			0.195 µg/mL (≈ 0.651 µM)				0.098 µg/mL (≈ 0.327 µM)	0.013 µg/mL (≈ 0.0434 µM)		0.098 µg/mL (≈ 0.327 µM)	0.781 µg/mL (≈ 2.61 µM)		0.391 µg/mL (≈ 1.31 µM)	0.098 µg/mL (≈ 0.327 µM)	4 ng/mL (≈ 0.0134 µM)	0.098 µg/mL (≈ 0.327 µM)			MIC50 (Pseudomonas aeruginosa [29]): 2 µg/mL (≈ 6.68 µM); MIC50 (Moraxella catarrhalis [30]): 0.06 µg/mL (≈ 0.2 µM); MIC90 (Pseudomonas aeruginosa [31]): 16 µg/mL (≈ 53.4 µM); MIC90 (Klebsiella pneumoniae [32]): 0.5 µg/mL (≈ 1.67 µM); MIC90 (Moraxella catarrhalis [33]): 0.06 µg/mL (≈ 0.2 µM); MIC50 (Streptococcus pneumoniae [34]): 0.12 µg/mL (≈ 0.401 µM); MIC90 (Streptococcus pneumoniae [34]): 0.25 µg/mL (≈ 0.835 µM); MIC50 (Klebsiella pneumoniae [35]): 0.12 µg/mL (≈ 0.401 µM)
C[C@@H](O)[C@H]1C(=O)N2C(C(=O)O)=C(S[C@@H]3CN[C@H](C(=O)N(C)C)C3)[C@H](C)[C@H]12 [MEROPENEM]	0.049 µg/mL (≈ 0.128 µM)	0.195 µg/mL (≈ 0.509 µM)			0.049 µg/mL (≈ 0.128 µM)	695 µg·min/mL	7 mL/min/kg	52 mL/min/kg	0.025 µg/mL (≈ 0.0652 µM)	0.195 µg/mL (≈ 0.509 µM)	383 µg·min/mL	0.025 µg/mL (≈ 0.0652 µM)	0.049 µg/mL (≈ 0.128 µM)		0.195 µg/mL (≈ 0.509 µM)	0.025 µg/mL (≈ 0.0652 µM)	13 ng/mL (≈ 0.0339 µM)		2 µg/mL (≈ 5.22 µM)	16 µg/mL (≈ 41.7 µM)	MIC50 (Moraxella catarrhalis [36]): 8 ng/mL (≈ 0.0209 µM); MIC90 (Moraxella catarrhalis [36]): 8 ng/mL (≈ 0.0209 µM); MIC50 (Streptococcus pneumoniae [34]): 0.5 µg/mL (≈ 1.3 µM); MIC90 (Streptococcus pneumoniae [34]): 0.5 µg/mL (≈ 1.3 µM); MIC50 (Klebsiella pneumoniae [37]): 0.03 µg/mL (≈ 0.0782 µM); MIC90 (Klebsiella pneumoniae [37]): 0.06 µg/mL (≈ 0.156 µM)
